Values joined by “and” are separate entries in the source; they are usually repeats but may differ in a detail not shown here. Equal values may be shown once. Inconclusive results and toxic doses are left out. No stated cut-off is given here; in the data, active means T/C of 150% or more; inactive means T/C below 125%.
Tested on: L1210 leukemia ip in BDF1 mice, survival T/C
Experiment: NCI In Vivo Anticancer Drug Screen. Data for tumor model L1210 Leukemia (intraperitoneal) in B6D2F1 (BDF1) mice
Details: endpoint: mean survival time, higher = longer survival
Method in brief: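 Transplantable tumor model; survival measured in treated vs vehicle control mice. Value = treated/control.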

[1] = dose: 100.0 mg/kg/injection, schedule: Q01DX009 (ip), vehicle: Klucel (hydroxypropylcellulose) (HPC)
[2] = dose: 100.0 mg/kg/injection, schedule: Q04DX003 (ip), vehicle: Klucel (hydroxypropylcellulose) (HPC)
[3] = dose: 200.0 mg/kg/injection, schedule: Q01DX009 (ip), vehicle: Klucel (hydroxypropylcellulose) (HPC)
[4] = dose: 200.0 mg/kg/injection, schedule: Q04DX003 (ip), vehicle: Klucel (hydroxypropylcellulose) (HPC)
[5] = dose: 400.0 mg/kg/injection, schedule: Q01DX009 (ip), vehicle: Klucel (hydroxypropylcellulose) (HPC)
[6] = dose: 400.0 mg/kg/injection, schedule: Q04DX003 (ip), vehicle: Klucel (hydroxypropylcellulose) (HPC)
[7] = dose: 100.0 mg/kg/injection, schedule: Q04DX002 (ip), vehicle: saline with Tween-80
[8] = dose: 200.0 mg/kg/injection, schedule: Q04DX002 (ip), vehicle: saline with Tween-80
[9] = dose: 400.0 mg/kg/injection, schedule: Q04DX002 (ip), vehicle: saline with Tween-80
[10] = dose: 100.0 mg/kg/injection, schedule: Q04DX002 (ip), vehicle: saline
[11] = dose: 200.0 mg/kg/injection, schedule: Q04DX002 (ip), vehicle: saline
[12] = dose: 50.0 mg/kg/injection, schedule: Q01DX001 (ip), vehicle: carboxymethylcellulose (CMC)
[13] = dose: 100.0 mg/kg/injection, schedule: Q01DX001 (ip), vehicle: carboxymethylcellulose (CMC)
[14] = dose: 200.0 mg/kg/injection, schedule: Q01DX001 (ip), vehicle: carboxymethylcellulose (CMC)
[15] = dose: 400.0 mg/kg/injection, schedule: Q01DX001 (ip), vehicle: carboxymethylcellulose (CMC)
[16] = dose: 75.0 mg/kg/injection, schedule: Q01DX001 (ip), vehicle: carboxymethylcellulose (CMC)

Measured: T/C

CCCCCCCCCCCCCCCCN(C(=S)c1ccccc1)c1ccccc1
inactive: [1] 89 % of control | [2] 104 % of control | [3] 90 % of control | [4] 94 % of control | [5] 87 % of control | [6] 96 % of control

Cc1ccc(S(=O)(=O)OC2C(C(O)CO)OC3OC(C)(C)OC32)cc1 (stereo not drawn)
inactive: [7] 90 % of control | [8] 97 % of control | [9] 101 % of control

NC(N)=NC(N)=Nc1ccc2c(Cl)c(Cl)ccc2c1
inactive: dose: 2.5 mg/kg/injection, schedule: Q01DX009 (ip), vehicle: saline sonified 92 % of control | dose: 5.0 mg/kg/injection, schedule: Q01DX009 (ip), vehicle: saline sonified 101 % of control | dose: 10.0 mg/kg/injection, schedule: Q01DX009 (ip), vehicle: saline sonified 101 % of control | dose: 12.5 mg/kg/injection, schedule: Q04DX003 (ip), vehicle: saline with Tween-80 105 % of control | dose: 25.0 mg/kg/injection, schedule: Q04DX003 (ip), vehicle: saline with Tween-80 114 % of control | dose: 50.0 mg/kg/injection, schedule: Q04DX003 (ip), vehicle: saline with Tween-80 100 % of control | dose: 100.0 mg/kg/injection, schedule: Q04DX003 (ip), vehicle: saline sonified 101 % of control

CCCCC[CH2][Sn]([CH2]C)([CH2]C)[CH2]C
inactive: [10] 93 % of control | [11] 93 % of control

Cc1ccccc1N=Nc1ccc(N(C)C)cc1
inactive: [12] 93 % of control | [13] 107 % of control | [2] 95 % of control | [14] 86 % of control | [4] 95 % of control | [15] 98 % of control | [6] 91 % of control

CCOC(=O)c1oc2c(C(C)=O)c(O)ccc2c1C
inactive: dose: 100.0 mg/kg/injection, schedule: Q04DX002 (ip), vehicle: Klucel (hydroxypropylcellulose) (HPC) 101 % of control and 103 % of control and 92 % of control | dose: 200.0 mg/kg/injection, schedule: Q04DX002 (ip), vehicle: Klucel (hydroxypropylcellulose) (HPC) 101 % of control and 103 % of control and 92 % of control | dose: 400.0 mg/kg/injection, schedule: Q04DX002 (ip), vehicle: Klucel (hydroxypropylcellulose) (HPC) 108 % of control | dose: 800.0 mg/kg/injection, schedule: Q04DX002 (ip), vehicle: Klucel (hydroxypropylcellulose) (HPC) 93 % of control and 95 % of control

CCCCCC[N+]1(C)CC2C3C=CC(C3)C2C1 (stereo not drawn)
inactive: dose: 12.5 mg/kg/injection, schedule: Q04DX003 (ip), vehicle: saline 103 % of control | dose: 25.0 mg/kg/injection, schedule: Q04DX003 (ip), vehicle: saline 97 % of control | dose: 50.0 mg/kg/injection, schedule: Q04DX003 (ip), vehicle: saline 97 % of control | dose: 75.0 mg/kg/injection, schedule: Q04DX003 (ip), vehicle: saline 92 % of control

O=C(CCN1CCC(c2ccccc2)CC1)c1ccc(F)cc1
inactive: [13] 106 % of control | [14] 93 % of control

C=C(NC(C)=O)C(O)c1ccc([N+](=O)[O-])cc1 (stereo not drawn)
inactive: [12] 96 % of control | [13] 100 % of control and 90 % of control | [1] 95 % of control | [2] 101 % of control | [14] 94 % of control and 97 % of control | [3] 93 % of control | [4] 98 % of control | [15] 100 % of control and 87 % of control | [5] 95 % of control | [6] 95 % of control

C/C=C/C=C\COC(=O)C1CC1
inactive: [10] 116 % of control | [11] 121 % of control

O=C(O)c1sc(C(=O)O)c(O)c1O
inactive: dose: 12.5 mg/kg/injection, schedule: Q01DX001 (ip), vehicle: saline with Tween-80 111 % of control | dose: 25.0 mg/kg/injection, schedule: Q01DX001 (ip), vehicle: saline with Tween-80 103 % of control | dose: 50.0 mg/kg/injection, schedule: Q01DX001 (ip), vehicle: saline with Tween-80 100 % of control

CCCC(CCCC(=O)O)C(=O)c1ccccc1 (stereo not drawn)
inactive: dose: 100.0 mg/kg/injection, schedule: Q01DX009 (ip), vehicle: saline with Tween-80 101 % of control | dose: 200.0 mg/kg/injection, schedule: Q01DX009 (ip), vehicle: saline with Tween-80 104 % of control | dose: 400.0 mg/kg/injection, schedule: Q01DX009 (ip), vehicle: saline with Tween-80 100 % of control

C=C(NC(=O)CNC(=O)CN)C(=O)O
inactive: [7] 105 % of control | [8] 102 % of control | [9] 102 % of control

C[N+](C)(C)/N=C/C1=C(Cl)CCCC1
inactive: dose: 3.13 mg/kg/injection, schedule: Q04DX002 (ip), vehicle: Klucel (hydroxypropylcellulose) (HPC) 94 % of control | dose: 6.25 mg/kg/injection, schedule: Q04DX002 (ip), vehicle: Klucel (hydroxypropylcellulose) (HPC) 102 % of control | dose: 12.5 mg/kg/injection, schedule: Q04DX002 (ip), vehicle: Klucel (hydroxypropylcellulose) (HPC) 97 % of control | [16] 114 % of control

Cc1nn(C(N)=S)c(C)c1N=Nc1cccc(Cl)c1
inactive: dose: 75.0 mg/kg/injection, schedule: Q01DX001 (ip), vehicle: other 96 % of control | dose: 150.0 mg/kg/injection, schedule: Q01DX001 (ip), vehicle: other 100 % of control | dose: 300.0 mg/kg/injection, schedule: Q01DX001 (ip), vehicle: other 105 % of control

CN(C)C(=S)Oc1ccc(Cl)cc1S(=O)(=O)F
inactive: [2] 106 % of control | [4] 101 % of control | [6] 102 % of control

Clc1ccc2noc(-c3ccccc3)c2c1
inactive: dose: 100.0 mg/kg/injection, schedule: Q01DX001 (ip), vehicle: saline 104 % of control | [1] 95 % of control | [2] 100 % of control | dose: 200.0 mg/kg/injection, schedule: Q01DX001 (ip), vehicle: saline 100 % of control | [3] 102 % of control | [4] 94 % of control | dose: 400.0 mg/kg/injection, schedule: Q01DX001 (ip), vehicle: saline 98 % of control | [5] 95 % of control | [6] 90 % of control

COC(=O)CCCC(=O)c1[nH]c2ccccc2c1CC(=O)NCc1ccccc1
inactive: dose: 75.0 mg/kg/injection, schedule: Q01DX001 (ip), vehicle: alcohol 97 % of control | dose: 150.0 mg/kg/injection, schedule: Q01DX001 (ip), vehicle: alcohol 93 % of control | dose: 300.0 mg/kg/injection, schedule: Q01DX001 (ip), vehicle: alcohol 92 % of control

NCCC(c1ccccc1)c1ccccc1
inactive: [16] 104 % of control

Cc1ccc(NC(=O)N(Cc2ccccc2)Cc2ccccc2)c([N+](=O)[O-])c1
inactive: dose: 50.0 mg/kg/injection, schedule: Q01DX009 (ip), vehicle: Klucel (hydroxypropylcellulose) (HPC) 87 % of control | [1] 123 % of control | [2] 95 % of control | [3] 90 % of control | [4] 101 % of control | [6] 99 % of control

Cc1cc2nc(CN)[nH]c2cc1C
inactive: dose: 50.0 mg/kg/injection, schedule: Q01DX009 (ip), vehicle: saline 98 % of control | dose: 100.0 mg/kg/injection, schedule: Q01DX009 (ip), vehicle: saline 98 % of control | dose: 200.0 mg/kg/injection, schedule: Q01DX009 (ip), vehicle: saline 93 % of control
